Measurements published in patent US20220340598A1, “PYRAZOLOPYRIDINONE COMPOUNDS” (Janssen Pharmaceutica NV, priority 2017, published 2022).
pIC50: −log10 of the molar value.

How the values were obtained:
[1] = biological target: T1, NIH/3T3 cells overexpressing FGFR3 WT-TACC3 fusion protein (Homo sapiens, UniProt P22607); experiment: NIH/3T3 FGFR3 WT-TACC3 cell proliferation assay; assay type: cell-based; conditions: 72-hr incubation, CellTiter Glo; read-out: NIH/3T3 FGFR3 WT-TACC3 CTG (IC50)
T1 construct: fused on or other part: Q9Y6A5 (Transforming acidic coiled-coil-containing protein 3)
Description: NIH/3T3 FGFR3 WT-TACC3 Cell Proliferation Assay
(§1) In day 1, 90 μL of cell suspension (NIH/3T3 cells overexpressing FGFR3 WT-TACC3 fusion protein) (total 30,000 cells per well in growth medium (DMEM containing 1% Glutamax, 10% FBS and 1% Pen/Strep)) was seeded in a 96-well plate and then incubated overnight at 37° C. and 5% CO2. In day 2, 10 μL of growth medium containing 10-fold stock solution of testing compound was added into cell cultures (9 dose points with 4× serial dilution, starting with 10 μM, 0.1% DMSO final). After 72-hr incubation at 37° C. and 5% CO2, in day 5 a volume of 50 μL CellTiter Glo (CTG) reagent was added into cell-containing 96-well plate and the plate was incubated at room temperature for 10 minutes before RLUs (relative light unit) were measured on a microplate reader with luminescence detection module. The RLU value was normalized to survival % and concentration-response curve was plotted using Prism to calculate IC50 (M), pIC50 (−log IC50) and HillSlope value.

[2] = biological target: T2, NIH/3T3 cells overexpressing FGFR3 V555M-TACC3 fusion protein (Homo sapiens, UniProt P22607, V555M, cells depend on it); experiment: NIH/3T3 FGFR3 V555M-TACC3 cell proliferation assay; assay type: cell-based; conditions: 72-hr incubation, CellTiter Glo; read-out: NIH/3T3 FGFR3 V555M-TACC3 CTG (IC50)
T2 construct: fused on or other part: Q9Y6A5 (Transforming acidic coiled-coil-containing protein 3)
Description: NIH/3T3 FGFR3 V555M-TACC3 Cell Proliferation Assay
as §1, with “V555M-TACC3” for “WT-TACC3”

[3] = biological target: T3, human FGFR3 V555M enzyme (cytoplasmic domain carrying V555M mutation) (Homo sapiens, UniProt P22607, V555M); experiment: FGFR3 V555M mobility shift assay (enzymatic assay); assay type: biochemical; conditions: 30 μM ATP, 45 minutes at 30° C., Caliper EZ reader II
T3 construct: human FGFR3 V555M enzyme (cytoplasmic domain carrying V555M mutation, from Carna Biosciences)
Description: FGFR3 V555M Mobility Shift Assay (Enzymatic Assay)
(§2) In a final reaction volume of 25 μL, 0.04 ng/μL human FGFR3 V555M enzyme (cytoplasmic domain carrying V555M mutation, from Carna Biosciences) was incubated with 30 μM ATP, 1 μM FL-peptide 30 substrate and 250 nL of testing compound (1% DMSO final) in assay buffer (100 mM HEPES pH 7.4, 10 mM MgCl2, 0.003% Brij35, 1 mM DTT). After incubation for 45 minutes at 30° C. the reaction was stopped with 10 μL of 0.5M EDTA pH 8.0, and then 25 μL of reaction mixture was transferred to reading plate and measured on Caliper EZ reader II.

[4] = biological target: T4, human FGFR3 wild type enzyme (cytoplasmic domain) (Homo sapiens, UniProt P22607); experiment: FGFR3 wild type mobility shift assay (enzymatic assay); assay type: biochemical; conditions: 75 μM ATP, 50 minutes at 30° C., Caliper EZ reader II
T4 construct: human FGFR3 wild type enzyme (cytoplasmic domain, from Carna Biosciences)
Description: FGFR3 Wild Type Mobility Shift Assay (Enzymatic Assay)
as §2, with “FGFR3 wild type” for “FGFR3 V555M”, “(cytoplasmic domain,” for “(cytoplasmic domain carrying V555M mutation,”, “with 75” for “with 30”, “for 50” for “for 45”

T4 sequence (P22607 397-806): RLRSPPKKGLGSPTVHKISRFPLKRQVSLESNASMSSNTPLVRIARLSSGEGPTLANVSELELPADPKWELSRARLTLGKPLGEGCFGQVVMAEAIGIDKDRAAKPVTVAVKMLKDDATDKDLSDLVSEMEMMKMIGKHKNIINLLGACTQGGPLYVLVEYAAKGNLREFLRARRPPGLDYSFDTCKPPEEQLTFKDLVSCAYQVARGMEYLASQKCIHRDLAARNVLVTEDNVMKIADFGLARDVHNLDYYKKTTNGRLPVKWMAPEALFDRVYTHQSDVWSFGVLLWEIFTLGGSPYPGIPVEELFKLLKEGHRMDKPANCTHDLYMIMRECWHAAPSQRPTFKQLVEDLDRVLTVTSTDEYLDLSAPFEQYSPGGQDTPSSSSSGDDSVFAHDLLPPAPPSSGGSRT
T2 sequence (P22607 whole entry V555M, the tested form may be a part): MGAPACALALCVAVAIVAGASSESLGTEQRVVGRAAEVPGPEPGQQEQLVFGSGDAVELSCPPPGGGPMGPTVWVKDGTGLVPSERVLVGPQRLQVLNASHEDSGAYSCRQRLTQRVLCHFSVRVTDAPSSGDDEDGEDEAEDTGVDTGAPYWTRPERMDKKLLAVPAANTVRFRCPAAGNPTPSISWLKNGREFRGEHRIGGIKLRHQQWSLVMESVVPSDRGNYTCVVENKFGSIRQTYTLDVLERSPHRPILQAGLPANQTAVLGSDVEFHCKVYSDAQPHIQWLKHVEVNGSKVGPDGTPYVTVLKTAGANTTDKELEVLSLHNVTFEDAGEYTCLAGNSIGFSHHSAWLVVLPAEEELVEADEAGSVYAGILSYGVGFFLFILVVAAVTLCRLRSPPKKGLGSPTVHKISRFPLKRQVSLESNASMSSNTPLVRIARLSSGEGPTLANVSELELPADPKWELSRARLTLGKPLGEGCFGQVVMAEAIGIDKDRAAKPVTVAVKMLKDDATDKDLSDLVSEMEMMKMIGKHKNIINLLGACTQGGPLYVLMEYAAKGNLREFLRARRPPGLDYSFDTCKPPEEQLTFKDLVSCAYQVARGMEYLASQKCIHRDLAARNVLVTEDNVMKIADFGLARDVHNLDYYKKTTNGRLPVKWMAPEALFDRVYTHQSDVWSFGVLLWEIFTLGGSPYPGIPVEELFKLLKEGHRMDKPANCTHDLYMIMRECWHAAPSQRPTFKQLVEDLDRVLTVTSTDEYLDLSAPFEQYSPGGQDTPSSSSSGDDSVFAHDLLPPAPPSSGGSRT
T1 sequence (P22607 whole entry, change not shown, the tested form may be a part): as the sequence (P22607 whole entry V555M, the tested form may be a part) above, with M555V counted along it
T3 sequence (P22607 397-806 V555M): as the sequence (P22607 397-806) above, with V159M counted along it

Structure (SMILES) | GI50 [1] | GI50 [2] | pIC50 [3] | pIC50 [4]
COc1ccc2nc(-c3c(NC(C)c4ncccn4)c4nn(C)cc4[nH]c3=O)[nH]c2c1 (single isomer, unassigned) [Compound 1, (S*)-6-(6-Methoxy-1H-benzo[d]imidazol-2-yl)-2-methyl-7-((1-(pyrimidin-2-yl)ethyl)-amino)-2H-pyrazolo[4,3-b]pyridin-5(4H)-one] | 4.72 nM | 4.07 nM | 9.57 | 9.12
CCn1cc2[nH]c(=O)c(-c3nc4cc(OC)c(OC)cc4[nH]3)c(NC(C)c3cocn3)c2n1 (single isomer, unassigned) [Compound 5A, (S*)-6-(5,6-Dimethoxy-1H-benzo[d]imidazol-2-yl)-2-ethyl-7-((1-(oxazol-4-yl)ethyl)amino)-2H-pyrazolo[4,3-b]pyridin-5(4H)-one] | 33.6 nM | 50.4 nM | 8.81 | 8.12
CCn1cc2[nH]c(=O)c(-c3nc4cc(OC)c(OC)cc4[nH]3)c(NC(C)c3cocn3)c2n1 (single isomer, unassigned) [Compound 5C, (R*)-6-(5,6-Dimethoxy-1H-benzo[d]imidazol-2-yl)-2-ethyl-7-((1-(oxazol-4-yl)ethyl)amino)-2H-pyrazolo[4,3-b]pyridin-5(4H)-one] | – | – | 6.50 | 6.01
CC(C)C(Nc1c(-c2nc3ccc(C(N)=O)cc3[nH]2)c(=O)[nH]c2cn(C)nc12)c1ncccn1 (single isomer, unassigned) [Compound 9, (S*)-2-(2-methyl-7-((2-methyl-1-(pyrimidin-2-yl)propyl)amino)-5-oxo-4,5-dihydro-2H-pyrazolo[4,3-b]pyridin-6-yl)-1H-benzo[d]imidazole-6-carboxamide] | 202 nM | 200 nM | 9.10 | 8.36
CC(C)C(Nc1c(-c2nc3ccc(C(=O)N(C)C)cc3[nH]2)c(=O)[nH]c2cn(C)nc12)c1ncccn1 (single isomer, unassigned) [Compound 10, (S*)—N,N-dimethyl-2-(2-methyl-7-((2-methyl-1-(pyrimidin-2-yl)propyl)amino)-5-oxo-4,5-dihydro-2H-pyrazolo[4,3-b]pyridin-6-yl)-1H-benzo[d]imidazole-6-carboxamide] | 54.2 nM | 31.9 nM | 9.17 | 8.59
CC[C@H](Nc1c(-c2nc3ccc(OC)cc3[nH]2)c(=O)[nH]c2cn(C)nc12)c1ncccn1 (single isomer, unassigned) [Compound 16, (S*)-6-(6-Methoxy-1H-benzo[d]imidazol-2-yl)-2-methyl-7-((1-(pyrimidin-2-yl)propyl)amino)-2H-pyrazolo[4,3-b]pyridin-5(4, H)-one] | – | – | 6.47 | 5.87
CCn1cc2[nH]c(=O)c(-c3nc4ccc(OC)cc4[nH]3)c(N[C@H](C)c3cocn3)c2n1 (single isomer, unassigned) [Compound 34, (R*)-2-ethyl-6-(6-methoxy-H-benzo[d]imidazol-2-yl)-7-((1-(oxazol-4-yl)ethyl)amino)-2H-pyrazolo[4,3-b]pyridin-5(4H)-one] | – | – | 7.48 | 7.40
COCCOc1cc2[nH]c(-c3c(NC(c4ncccn4)C(C)C)c4nn(C)cc4[nH]c3=O)nc2cc1OC (single isomer, unassigned) [Compound 36, (S*)-6(5-methoxy-6-(2-methoxyethoxy)-1H-benzo[d]imidazol-2-yl)-2-methyl-7-((2-methyl-1-(pyrimidin-2-yl)propyl)amino)-2H-pyrazolo[4,3-b]pyridin-5(4H)-one] | 25 nM | 21.5 nM | – | 8.11
CCC(Nc1c(-c2nc3cc(OC)c(OC)cc3[nH]2)c(=O)[nH]c2cn(CC)nc12)c1ncccn1 (single isomer, unassigned) [Compound 45, (R*)-6-(5,6-dimethoxy-1H-benzo[d]imidazol-2-yl)-2-ethyl-7-((1-(pyrimidin-2-yl)propyl)amino)-2H-pyrazolo[4,3-b]pyridin-5(4H)-one] | – | – | 6.46 | 6.22
C[C@H](Nc1c(-c2nc3ccc(F)cc3[nH]2)c(=O)[nH]c2cn(C)nc12)c1ncccn1 [Compound 28, (S)-6-(6-Fluoro-1H-benzo[d]imidazol-2-yl)-2-methyl-7-((1-(pyrimidin-2-yl)ethyl)amino)-2H-pyrazolo[4,3-b]pyridin-5(4H)-one] | 73.8 nM | 13.3 nM | – | 8.15
CCn1cc2[nH]c(=O)c(-c3nc4c(F)c(OC)c(OC)cc4[nH]3)c(N[C@@H](C)c3ncccn3)c2n1 [Compound 41, (S)-2-ethyl-6-(4-fluoro-5,6-dimethoxy-1H-benzo[d]imidazol-2-yl)-7-((1-(pyrimidin-2-yl)ethyl)amino)-2H-pyrazolo[4,3-b]pyridin-5(4H)-one] | 46.5 nM | 55.6 nM | – | –
CCOc1ccc2nc(-c3c(N[C@@H](C)c4ncccn4)c4nn(CC)cc4[nH]c3=O)[nH]c2c1 [Compound 50, (S)-6-(6-ethoxy-1H-benzo[d]imidazol-2-yl)-2-ethyl-7-((1-(pyrimidin-2-yl)ethyl)amino)-2,4-dihydro-5H-pyrazolo[4,3-b]pyridin-5-one] | 28.7 nM | 40.9 nM | – | –
CCOc1cc2nc(-c3c(N[C@@H](C)c4ncccn4)c4nn(CC)cc4[nH]c3=O)[nH]c2cc1OCC [Compound 52, (S)-6-(5,6-diethoxy-1H-benzo[d]imidazol-2-yl)-2-ethyl-7-((1-(pyrimidin-2-yl)ethyl)amino)-2H-pyrazolo[4,3-b]pyridin-5(4H)-one] | 16.1 nM | 18.8 nM | – | –
CCOc1cc2nc(-c3c(N[C@@H](C)c4ncccn4)c4nn(C)cc4[nH]c3=O)[nH]c2cc1OCC [Compound 53, (S)-6-(5,6-diethoxy-1H-benzo[d]imidazol-2-yl)-2-methyl-7-((1-(pyrimidin-2-yl)ethyl)amino)-2,4-dihydro-5H-pyrazolo[4,3-b]pyridin-5-one] | 3.19 nM | 4.15 nM | – | –
CCn1cc2[nH]c(=O)c(-c3nc4ccc(OCCOC)cc4[nH]3)c(N[C@@H](C)c3ncccn3)c2n1 [Compound 54, (S)-2-ethyl-6-(6-(2-methoxyethoxy)-1H-benzo[d]imidazol-2-yl)-7-((1-(pyrimidin-2-yl)ethyl)amino)-2H-pyrazolo[4,3-b]pyridin-5(4H)-one] | 11.5 nM | 21.6 nM | – | –
COc1cc2[nH]c(-c3c(N[C@@H](C)c4ncccn4)c4nn(C)cc4[nH]c3=O)nc2c(F)c1OC [Compound 55, (S)-6-(4-fluoro-5,6-dimethoxy-1H-benzo[d]imidazol-2-yl)-2-methyl-7-((1-(pyrimidin-2-yl)ethyl)amino)-2H-pyrazolo[4,3-b]pyridin-5(4H)-one] | 17400 nM | 11.8 nM | – | –
COc1cc2nc(-c3c(N[C@@H](C)c4ccccn4)c4nn(C)cc4[nH]c3=O)[nH]c2cc1OC [Compound 56, (S)-6-(5,6-dimethoxy-1H-benzo[d]imidazol-2-yl)-2-methyl-7-((1-(pyridin-2-yl)ethyl)amino)-2H-pyrazolo[4,3-b]pyridin-5(4H)-one] | 18.4 nM | 13.1 nM | – | –
